These results are taken from ChEMBL document CHEMBL6115030, “Systematic All-Hydrocarbon Stapling Analysis for Cecropin A Generates a Potent and Stable Antimicrobial Peptide” (J Med Chem, 2025).

Structures are written as SMILES. Converted amounts (≈) assume the structure as drawn. The source made the active and inactive calls. The calls are words filed in the database; no cut-off is given here. Bridge positions count the residues as written; N and C are the ends. Square brackets hold non-standard residues; d marks the D form. Peptide text beside a SMILES is read from it. S5 = C=CCCC[C@](C)(N)C(=O)O A value given as a limit tells only on which side of the number the result lay.

By MIC is commonly meant the least concentration at which growth counts as inhibited.

Data set [1] in a line: Toxicity in C57BL/6 female mouse assessed as haemorrhagic point and blurred white pulp boundary in spleen at 25 mg/kg, ip measured during 14 days of study by H and E staining based analysis. It is filed as organism-based. The note with it: in vivo, 336 h, time 14 day.
In another data set the test system is Cell membrane. The data set is described as follows: Induction of Outer membrane damage in Escherichia coli assessed as increase in NPN intensity at 5 uM measured after 24 hrs incubation by microplate reader based outer membrane permeability assay. It is filed as subcellular.
For data set [2], the system named is Klebsiella pneumoniae. The data set is described as follows: Antibacterial activity against Carbapenem-resistant Klebsiella pneumoniae assessed as inhibition of bacterial growth measured after 24 hrs by broth microdilution method. It is filed as functional. On the technique in general: Broth dilution looks for growth in wells or tubes with falling amounts of substance.

For the next data set, the system named is NIH3T3. The data set is described as follows: Cytotoxicity against mouse NIH3T3 cells assessed as cell viability measured upto 50 uM incubated for 24 hrs by CCK-8 assay. In kind it is toxicity, cell-based. The note with it: nih3t3, 24 h.
Data set [3] concerns Escherichia coli. The data set is described as follows: Induction of LPS transport pathway related genes in Escherichia coli assessed as change in LptE gene expression at 12.5 uM measured after 2 hrs incubation by PCR analysis. It is filed as functional, organism-based.
Data set [4] relates to Klebsiella pneumoniae. The data set is described as follows: Antibacterial activity against Klebsiella pneumoniae ATCC 13883 assessed as inhibition of bacterial growth measured after 24 hrs by broth microdilution method. In kind it is functional.
Data set [5] concerns Escherichia coli. The data set is described as follows: Induction of outer membrane synthesis related pathways in Escherichia coli assessed as change in OmpG gene expression at 12.5 uM measured after 2 hrs incubation by PCR analysis. It is filed as functional, organism-based.
Data set [6] relates to Escherichia coli. The data set is described as follows: Induction of metabolism related pathways in Escherichia coli assessed as protein synthesis pathway mRNAs at 12.5 uM measured after 2 hrs incubation by PCR analysis. In kind it is functional, organism-based.
In data set [7] the test system is Escherichia coli. The data set is described as follows: Induction of LPS transport pathway related genes in Escherichia coli assessed as change in LptG gene expression at 12.5 uM measured after 2 hrs incubation by PCR analysis. It is filed as functional, organism-based.
Data set [8] in a line: Toxicity in C57BL/6 female mouse assessed as juxtaglomerular cells and interstitial fibrous tissues in kidney at 25 mg/kg, ip measured during 14 days of study by H and E staining based analysis. In kind it is organism-based. The settings on record: in vivo, 336 h, time 14 day.
Data set [9] deals with Escherichia coli. The data set is described as follows: In vivo antibacterial activity against Escherichia coli intraperitoneally injected into C57BL/6 mouse peritonitis model assessed as mouse survival at 2.5 mg/kg, ip measured after 48 hrs relative to control. It is filed as functional.
Data set [10] has as its system Escherichia coli. The data set is described as follows: Induction of multiple envelope stress pathway related pathways in Escherichia coli assessed as change in FimA gene expression at 12.5 uM measured after 2 hrs incubation by PCR analysis. In kind it is functional, organism-based.
For the next data set, the system named is Pseudomonas aeruginosa. The data set is described as follows: Antibacterial activity against Pseudomonas aeruginosa PAO1 assessed as inhibition of bacterial growth measured after 24 hrs by broth microdilution method. In kind it is functional.
Data set [11] has as its system Escherichia coli. The data set is described as follows: In vivo antibacterial activity against Escherichia coli intraperitoneally injected into C57BL/6 mouse peritonitis model assessed as reduction in bacterial load in spleen at 2.5 mg/kg, ip measured after 48 hrs relative to control. It is filed as functional, organism-based.
The nature of data set [12]: Stability of the compound in human serum assessed as remaining peptide by RP-HPLC analysis. It is filed as ADME, cell-free.
The next data set concerns Mus musculus. The data set is described as follows: In vivo anti-inflammatory efficacy in Escherichia coli intraperitoneally injected into C57BL/6 mouse peritonitis model assessed as reduction in IL-1beta level in blood at 2.5 mg/kg, ip measured after 48 hrs by ELISA. In kind it is functional, organism-based. For orientation: In an ELISA, binding on a coated surface is turned into a signal by an enzyme label.

Turning to `CC[C@H](C)[C@H](NC(=O)CNC(=O)[C@H](CC(=O)O)NC(=O)[C@H](CCCNC(=N)N)NC(=O)[C@@H](NC(=O)[C@H](CC(N)=O)NC(=O)[C@H](CCC(N)=O)NC(=O)CNC(=O)[C@@H](NC(=O)[C@H](CCCCN)NC(=O)[C@H](CCC(=O)O)NC(=O)[C@@H](NC(=O)[C@H](CCCCN)NC(=O)[C@H](CCCCN)NC(=O)[C@H](Cc1ccccc1)NC(=O)[C@H](CC(C)C)NC(=O)[C@H](CCCCN)NC(=O)[C@H](Cc1c[nH]c2ccccc12)NC(=O)[C@H](CCCCN)NC(C)=O)[C@@H](C)CC)C(C)C)[C@@H](C)CC)C(=O)N[C@H](C(=O)N[C@@H](CCCCN)C(=O)N[C@@H](C)C(=O)NCC(=O)N1CCC[C@H]1C(=O)N[C@@H](C)C(=O)N[C@H](C(=O)N[C@@H](C)C(=O)N[C@H](C(=O)N[C@H](C(=O)NCC(=O)N[C@@H](CCC(N)=O)C(=O)N[C@@H](C)C(=O)N[C@@]1(C)CCC/C=C\CCC[C@@](C)(C(N)=O)NC(=O)[C@H](C)NC(=O)[C@H]([C@@H](C)CC)NC(=O)[C@H](CCC(N)=O)NC1=O)C(C)C)C(C)C)C(C)C)[C@@H](C)CC` (Ac-KWKLFKKIEKVGQNIRDGIIKAGPAVAVVGQA[S5]QIA[S5]-NH2; staple (Z) 33-37), the Activity entry is on record as “Non-toxic” in data set [1]; “Non-toxic” with NIH3T3; “Non-toxic” in data set [8]; 67% with Escherichia coli [9]; “Active; Compound Showed Enhanced Bacterial Elimination Than Cec-0” in the data set with Escherichia coli [11]. Further, the result in the data set with Cell membrane, in the data set on Escherichia coli [3], in the data set with Escherichia coli [5], in the data set on Escherichia coli [6], with Escherichia coli [7] and with Escherichia coli [10] was Active. The outcome in the data set with Mus musculus was Active. For the same compound, the MIC stood at 6.25 µM (≈ 25.4 µg/mL) with Klebsiella pneumoniae [2], 3.13 µM (≈ 12.7 µg/mL) in the data set with Klebsiella pneumoniae [4] and 6.25 µM (≈ 25.4 µg/mL) in the data set on Pseudomonas aeruginosa. Further, the Stability in data set [12] is more than 50%.
